Assay results from PubChem BioAssay (NCI).
“And” between values parts separate entries of the source, which are not always exact repeats. Equal values may be shown once.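 Test compounds were applied to cells in 96-well plates for 48 hours at 5 doses. At the GI50, growth is halved. TGI: total growth inhibition.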

Key:
Experiment in all cases: inhibition of tumour cell growth, NCI panel, 48 h
HCC-2998 colon = test system: HCC-2998 colon
MOLT-4 leukemia = test system: MOLT-4 leukemia
HOP-62 NSCLC = test system: HOP-62 NSCLC
KM12 colon = test system: KM12 colon
CAKI-1 renal = test system: CAKI-1 renal
MDA-MB-231 breast = test system: MDA-MB-231 breast
SK-MEL-2 melanoma = test system: SK-MEL-2 melanoma
786-0 renal = test system: 786-0 renal

Structure (SMILES)	GI50 (HCC-2998 colon) [µM]	TGI (HCC-2998 colon)	GI50 (MOLT-4 leukemia) [µM]	TGI (MOLT-4 leukemia) [µM]	GI50 (HOP-62 NSCLC) [µM]	TGI (HOP-62 NSCLC) [µM]	GI50 (KM12 colon) [µM]	TGI (KM12 colon) [µM]	GI50 (CAKI-1 renal) [µM]	TGI (CAKI-1 renal) [µM]	GI50 (MDA-MB-231 breast) [µM]	TGI (MDA-MB-231 breast) [µM]	GI50 (SK-MEL-2 melanoma) [µM]	TGI (SK-MEL-2 melanoma) [µM]	GI50 (786-0 renal) [µM]	TGI (786-0 renal) [µM]
O=C1NC(=NCCc2ccccc2F)S/C1=C\c1ccc2ncccc2c1	8.55	> 25 µM	9.02	> 25	9.31	> 25	4.02	> 25	5.29	> 19.7	16.2	> 25	6.16	14.5	8.71	> 25
O=C1NC(c2cccc3ccccc23)Nc2ccc(Cl)cc21 (stereo not drawn)		0.285 µM and 0.0607 µM		0.00987		11.9		0.803	0.0109	11.2		30.3				23.1
Cc1c(Br)c(Br)c2c3c1nc(N1CCNCC1)n3CCC2	1.81	3.51 µM			1.87	4.87	1.72	3.2	1.45	3.05	1.36	2.74	1.95	4.06	2.63	7.33
CCN(CC)CCOc1ccc2c(-c3ccccc3)c(-c3ccc(OC)cc3)c(=O)oc2c1	4.22	15 µM	2.82	8.27	4.47	16.8	3.83	14.1	3.07	10.3	4.91	17.5			2.22	5.37
CC1(C)CCC2(C(=O)O)C(O)CC3(C)C(=CCC4C5(C)CCC(OC6OCC(O)C(O)C6OC6OCC(O)C(O)C6OC6OCC(O)C(OC7OC(CO)C(O)C(O)C7O)C6O)C(C)(C)C5CCC43C)C2C1 (stereo not drawn)		> 100 µM				> 100		44.1		> 100		> 100		76.3		> 100
CCCCCCCCCCCCCCCC(=O)OCC1OC(OCCCC)[C@H](O[C@@H]2OC(C)C(OC(=O)CCC)C(O)C2O)C(O)C1O (stereo partly drawn)					16.8	30.8	17.1	31.9	12.9	26.2	14.4	30.2	41.2	> 100	16.7	30.8
N#Cc1c(-c2ccccc2)nc(SCC(O)CN2CCOCC2)nc1N1CCOCC1 (stereo not drawn)	47	> 100 µM	16.1	> 100	29	> 100	30.2	> 100	1.67		8.36	> 100			14.8	> 100
N#Cc1ncc(-c2ccc(C(F)(F)F)cc2)c(NC2CCCCCC2)n1	13.2	> 100 µM	7.42	> 100	> 100	> 100	13.6	> 100	18.3	> 100	6.56	> 100			47.7	> 100
O=C(O)c1cc(-c2ccc(-c3ccccc3)cc2)nc2cc3ccccc3cc12				> 100		> 100		> 100		> 100		> 100		> 100		67.6
CN(C)Cc1ccc(O)c(CN(C)C)n1				> 100		> 100		> 100		> 100		> 100		> 100		> 100
O=C(CCl)N1CCN(c2ccccn2)CC1		35.8 µM		> 100		46.2		94		33.5						35.1
